In article PMC7177833, “2-Aminopyridine Analogs Inhibit Both Enzymes of the Glyoxylate Shunt in Pseudomonas aeruginosa” (International Journal of Molecular Sciences, 2020):

Columns and labels:
Type in all cases: in vitro ADME
[1] = Metabolic stability in human liver microsomes; settings: HLM; for Clh, int (predicted hepatic clearance): scaled; for Clh (predicted in vivo hepatic clearance): well-stirred model; for half-life at 0.5 µM / microsomal CLint at 0.5 µM: human, pooled human liver microsomes, pH 7.4
Protocol: (§1) The metabolic stability of the test compounds was measured following incubation with liver microsomes from humans (BioIVT, lot no. IHG; West Sussex, UK) and rats (BD Gentest, lot no. 60614; BD Biosciences, Milan, Italy). Verapamil and dextromethorphan were used as positive controls. An automated incubation procedure was performed using the RSP Freedom Evo liquid dispensing and incubation system (TECAN, Milan, Italy). Five microliters of 50 µM test compound or positive control were added to 445 µL of microsomal suspension in 96 deep-well plates. The microsomal preparation comprised 0.56 mg/mL of pooled and homogenized liver microsomes suspended in 50 mM potassium phosphate buffer, pH 7.4. After 5 min at 37 °C, the reactions were initiated by adding 50 µL of prewarmed NADPH regenerating buffer to each sample. The regenerating buffer comprised a 2% NaHCO3 solution containing 1.7 mg NADP, 7.8 mg glucose-6-phosphate, and 6 units of glucose-6-phosphate dehydrogenase per mL. The samples were incubated at 37 °C, and 50 µL aliquots were withdrawn after 0, 3, 10, 15, 30, and 45 min and quenched in 150 µL acetonitrile. […] The analytical column was a Synergi “Max-RP” reverse phase C12 with TMS endcapping (30 mm × 2 mm, 4 µm particle size) (Phenomenex, Inc., Bologna, Italy). The column temperature was maintained at 60 °C. […] Analytes were quantified in multiple reaction-monitoring mode. Peak areas were integrated using Integrator Software from Agilent (Agilent Technologies, Milan, Italy) and were divided by the peak areas of the internal standard. The percentage of parent compound remaining was calculated by normalizing the peak area ratio of the parent compound to that of the internal standard at time 0. The half-lives of compound metabolism were derived from the linear portion of the slope of ln percent parent compound vs time. Intrinsic clearance in liver microsomes was estimated from: (1) Clint=k×(V/M) (2) Clh, int=(Clint (×1st Scaling factor)×2^ndScaling factor) (3) Clh=(Q×Clh, int)/(Q+Clh, int).
(§2) Here, k is the rate of depletion of the parent compound ([…]), V is the volume of the reaction mixture in mL, and M is the concentration of microsomal protein (in mg/mL). The amounts of protein in the incubations were scaled relative to the average liver- and body-mass of each species to obtain intrinsic hepatic clearance (Clh, int, in […]) (Table S3). These scaling factors were used along with the average hepatic blood flow (Q, in […]) of each species to obtain in vivo correlations (Clh, in mL/min/kg) using the well-stirred model.

[2] = Metabolic stability in rat liver microsomes; settings: RLM; for Clh, int (predicted hepatic clearance): scaled; for Clh (predicted in vivo hepatic clearance): well-stirred model; for half-life at 0.5 µM / microsomal CLint at 0.5 µM: rat, pooled rat liver microsomes, pH 7.4
Protocol: as §1, §2

CYP2C8 = biological target: T1, CYP2C8 (Homo sapiens, UniProt P10632); experiment: CYP450 inhibition in HLM, rosiglitazone probe; settings: read-out: IC50 CYP450 2C8
T1 construct: pooled human liver microsomes; tissue BioIVT; host or cells: pooled human liver microsomes
T1 sequence (P10632 1-490): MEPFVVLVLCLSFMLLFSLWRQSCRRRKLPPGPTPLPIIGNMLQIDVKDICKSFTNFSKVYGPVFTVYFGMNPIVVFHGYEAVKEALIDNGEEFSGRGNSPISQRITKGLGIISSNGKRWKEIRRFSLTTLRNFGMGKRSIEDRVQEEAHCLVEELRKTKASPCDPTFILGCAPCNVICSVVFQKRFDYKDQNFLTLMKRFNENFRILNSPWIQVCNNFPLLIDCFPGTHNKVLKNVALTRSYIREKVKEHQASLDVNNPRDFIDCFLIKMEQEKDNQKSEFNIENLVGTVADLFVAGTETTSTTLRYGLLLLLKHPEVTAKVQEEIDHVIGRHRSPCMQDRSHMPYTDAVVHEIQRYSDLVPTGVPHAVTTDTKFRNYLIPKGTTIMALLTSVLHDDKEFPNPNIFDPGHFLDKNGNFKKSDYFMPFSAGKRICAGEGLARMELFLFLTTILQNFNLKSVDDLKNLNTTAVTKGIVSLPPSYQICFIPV
Protocol: The CYP450 inhibition was determined by measuring the reaction products of known CYP450 substrates (probes). Probe solutions were prepared by diluting stock solutions with buffer (100 mM Tris-HCl, pH 7.5, and 0.5 mM EDTA) to the final indicated concentrations (Figure 5), and adding 180 µL of pooled human liver microsomes (20 mg/mL) (BioIVT, West Sussex, UK). These probe solutions were dispensed (195 µL) into clear 96-well plates with low evaporation lids (Corning, Turin, Italy) and the plates were prewarmed to 37 °C in a thermomixer (Hamilton, Agrate Brianza, Italy). Next, 5 µL of the test compound or appropriate positive control (Table S4) were added to the wells and the plates were incubated for a further 5 min. Following this, the reactions were started by adding NADPH regenerating solution (50 µL, see previous Section 4.7) to each well. CYP450 mixtures containing phenacetin, rosiglitazone, mephenytoin, atorvastatin, and nifedipine probes were incubated for 10 min at 37 °C, whereas those with midazolam and diclofenac were incubated for 5 min at 37 °C. Aliquots (100 µL) from each reaction mixture were quenched in 200 µL acetonitrile, and the mixtures were sedimented at 3000 ×g for 10 min at 4 °C. The supernatants were diluted in water containing 5 ng/mL Rolipram as an internal standard for LC-MS/MS analysis. All incubations were carried out in triplicate.
Probe products were analyzed on an API4000 Qtrap mass spectrometer (Applied Biosystems/MDS SCIEX, Monza, Italy) coupled with an Acquity UPLC system (Waters, Milan, Italy) and a CTC-PAL auto-injector (CTC Analytics AG, Zwingen, Switzerland). […] The column temperature was maintained at 60 °C. The injected sample volume was 10 µL, and analytes were eluted at a flow rate of 800 µL/min in a gradient of eluent A (water with 0.1% formic acid) and eluent B (acetonitrile with 0.1% formic acid). […] The analytes were quantified in multiple reaction-monitoring mode. Data were processed, and the percentage control activity was calculated based on a comparison between the ratio of the sample peak area and the peak area.

CYP2D6 = biological target: T2, CYP2D6 (Homo sapiens, UniProt P10635); experiment: CYP450 inhibition in HLM, bufuralol probe; settings: read-out: IC50 CYP450 2D6
T2 construct: pooled human liver microsomes; tissue BioIVT; host or cells: pooled human liver microsomes
T2 sequence (P10635 whole entry): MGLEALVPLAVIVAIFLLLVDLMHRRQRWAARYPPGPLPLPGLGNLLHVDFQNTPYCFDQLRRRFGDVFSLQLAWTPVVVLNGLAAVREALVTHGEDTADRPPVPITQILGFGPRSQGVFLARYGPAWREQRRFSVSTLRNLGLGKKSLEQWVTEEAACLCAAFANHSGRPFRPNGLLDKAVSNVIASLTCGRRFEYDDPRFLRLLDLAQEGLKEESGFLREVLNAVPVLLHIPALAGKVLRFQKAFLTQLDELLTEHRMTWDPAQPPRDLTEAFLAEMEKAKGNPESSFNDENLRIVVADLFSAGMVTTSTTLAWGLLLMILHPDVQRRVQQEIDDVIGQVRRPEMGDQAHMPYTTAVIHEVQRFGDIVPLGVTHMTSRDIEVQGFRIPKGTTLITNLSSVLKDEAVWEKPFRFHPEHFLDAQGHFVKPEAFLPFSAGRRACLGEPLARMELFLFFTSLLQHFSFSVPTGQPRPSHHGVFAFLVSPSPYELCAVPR

Structure (SMILES) | T1/2 [1] [min] | Clh, int (predicted hepatic clearance) [1] [mL/min/kg] | Clh (predicted in vivo hepatic clearance) [1] [mL/min/kg] | half-life at 0.5 µM [1] [min] | microsomal CLint at 0.5 µM [1] [µL/min/mg] | Clh, int (predicted hepatic clearance) [2] [mL/min/kg] | Clh (predicted in vivo hepatic clearance) [2] [mL/min/kg] | half-life at 0.5 µM [2] [min] | microsomal CLint at 0.5 µM [2] [µL/min/mg] | IC50 (CYP2C8) [µM] | IC50 (CYP2D6) [µM]
CC(C)(C)OC(=O)/N=C(\NC(=O)OC(C)(C)C)Nc1cc(C#N)ccn1 [SB023] | 72.85 | 25.75 | 11.48 | 72 | 19.1 | 124.58 | 50.53 | 25.8 | 53.9 | > 100 | > 100
Nc1cc(Cl)ccn1 [Compound 2-AP, 2-amino-4-chloropyridine, reference compound] | – | 34.33 | 12.91 | 54.6 | 25.4 | 14.63 | 12.48 | 220 | 6.33 | > 100 | > 100
CC(C)(C)OC(=O)/N=C(\NC(=O)OC(C)(C)C)Nc1cc(Cl)ccn1 [SB002] | 80.50 | 23.31 | 10.96 | 81 | 17.3 | 62.99 | 36.18 | 51 | 27.3 | > 100 | > 100
